In ChEMBL document CHEMBL3400100, “Streptococcus mutans sortase A inhibitory metabolites from the flowers of Sophora japonica” (Bioorg Med Chem Lett, 2015):

How the values were obtained:
[1] = Inhibition of Streptococcus mutans OMZ65 sortase A lacking N-terminal membrane anchor domain (1 to 40 amino acids) expressed in Escherichia coli TOP10 using Dabcyl-QALPETGEE-Edans substrate incubated for 1 hr by fluorescence spectrophotometry
Streptococcus mutans [2] = experiment: Toxicity against Streptococcus mutans assessed as inhibition of microbial growth; format: organism-based; conditions: in vitro
Streptococcus mutans [3] = experiment: Inhibition of sortase A in Streptococcus mutans NG8 assessed as reduction in saliva-induced bacterial aggregation at 58.6 to 234.4 uM by spectrophotometry

Work on COc1cc(/C=C/C(=O)CC(=O)/C=C/c2ccc(O)c(OC)c2)ccc1O [CURCUMIN] yielded an IC50 [1] of 91.5 µM and an MIC (Streptococcus mutans [2]) of over 542.9 µM.

C[C@@H]1O[C@@H](OC[C@H]2O[C@@H](Oc3c(-c4ccc(O)cc4)oc4cc(O)cc(O)c4c3=O)[C@H](O)[C@@H](O)[C@@H]2O)[C@H](O)[C@H](O)[C@H]1O [NICOTIFLOROSIDE] gave an IC50 [1] of 60.7 µM and an MIC (Streptococcus mutans [2]) of over 336.4 µM.

With Para-Hydroxymercuribenzoic acid the IC50 [1] was 112 µM.

Cc1occc(=O)c1O[C@@H]1O[C@H](COC(=O)CC(C)(O)CC(=O)O)[C@@H](OC(=O)/C=C/c2ccc(O)cc2)[C@H](O)[C@H]1O (some centres not stated) gave an IC50 [1] of 94.3 µM and an MIC (Streptococcus mutans [2]) of over 345.9 µM.

With COc1cc(-c2oc3cc(O)cc(O)c3c(=O)c2O[C@@H]2O[C@H](CO[C@@H]3O[C@@H](C)[C@H](O)[C@@H](O)[C@H]3O)[C@@H](O)[C@H](O)[C@H]2O)ccc1O [NARCISSIN] the IC50 [1] was 62.1 µM and the MIC (Streptococcus mutans [2]) was over 320.2 µM.

In the case of Cc1occc(=O)c1O[C@@H]1O[C@H](COC(=O)CC(C)(O)CC(=O)O)[C@@H](OC(=O)/C=C\c2ccc(O)cc2)[C@H](O)[C@H]1O (some centres not stated), the inhibition (Streptococcus mutans [3]) is reported as “Dose-dependent effect”, the IC50 [1] is reported as 58.6 µM and the MIC (Streptococcus mutans [2]) is reported as over 345.9 µM.
